The results in this text go back to PubChem BioAssay AID1033 (Sanford-Burnham Center for Chemical Genomics, 2008).

Molecules are shown by their SMILES. Activity calls are given as the source filed them. The rule behind the calls is not given here. Bounds are passed on as bounds.

In the test the target is Chaperone protein DnaK (Escherichia coli (strain K12)) (UniProt P0A6Y8). Nature of the test: binders of DnaK substrate-binding domain, biophysical, NMR, chaperone (AID 1033). The note with it: Purified DnaK SBD, NMR ligand binding.
Sequence of Chaperone protein DnaK (Escherichia coli (strain K12)) (P0A6Y8 whole entry, looked up, the tested form may be a part): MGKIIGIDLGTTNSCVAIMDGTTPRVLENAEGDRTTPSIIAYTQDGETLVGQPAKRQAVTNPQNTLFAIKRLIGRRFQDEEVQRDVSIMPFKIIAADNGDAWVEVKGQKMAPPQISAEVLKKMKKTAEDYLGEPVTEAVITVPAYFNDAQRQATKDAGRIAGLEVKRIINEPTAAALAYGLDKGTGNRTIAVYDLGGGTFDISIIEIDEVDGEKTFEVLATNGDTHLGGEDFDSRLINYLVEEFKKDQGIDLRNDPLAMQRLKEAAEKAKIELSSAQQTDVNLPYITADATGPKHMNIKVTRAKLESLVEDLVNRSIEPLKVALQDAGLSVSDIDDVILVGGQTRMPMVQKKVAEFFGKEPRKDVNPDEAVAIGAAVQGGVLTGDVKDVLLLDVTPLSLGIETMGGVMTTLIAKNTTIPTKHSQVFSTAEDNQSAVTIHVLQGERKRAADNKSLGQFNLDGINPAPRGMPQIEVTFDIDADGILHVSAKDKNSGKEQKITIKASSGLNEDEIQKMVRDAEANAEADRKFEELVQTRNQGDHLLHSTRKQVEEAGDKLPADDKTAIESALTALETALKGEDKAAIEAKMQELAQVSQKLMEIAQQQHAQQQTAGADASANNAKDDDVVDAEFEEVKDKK
Usually Kd stands for a measure of binding affinity in units of concentration. For the compound `CC(=O)N(C)Cc1nc2ccccc2n1C`, the Kd was > 4 mM (inactive).

For the compound `O=C(O)C1CSC2(CCCCC2)N1` (stereo not drawn), the Kd was > 4 mM (inactive).

On to `CNc1nc(N)c(C(=O)C(C)(C)C)s1`, for which the Kd is > 4 mM (inactive).

Consider `COC(=O)Cc1csc(N)n1`, for which the Kd was > 4 mM (inactive).

`NC(=S)NC1CCS(=O)(=O)C1` (stereo not drawn): the Kd was > 4 mM (inactive).

Regarding `O=C(O)c1cccc(O)c1O`, the Kd is > 4 mM (inactive).

As to `CC(C)(O)P(C)(=O)c1ccccc1` (stereo not drawn), the Kd is > 4 mM (inactive).

Consider `NC(=O)c1cn(-c2ccccc2)nc1-c1cccnc1`, for which the Kd is > 4 mM (inactive).

Regarding `Nc1nnc(-c2ccncc2)s1`, the Kd is > 4 mM (inactive).

On to `Nc1cc(-c2ccco2)[nH]n1`, for which the Kd was > 4 mM (inactive).

With `COc1ccccc1NC(=O)C1CCC(=O)N1` (stereo not drawn), the Kd is > 4 mM (inactive).

`Cc1occc1C(=O)Nc1cc(C(C)(C)C)on1`: the Kd is > 4 mM (inactive).

In the case of `CN1CC(=O)N=C1N`, the Kd is > 4 mM (inactive).

Consider `CC(C)n1c(Nn2cnnc2)nc2ccccc21`, for which the Kd was > 4 mM (inactive).

For `CCCc1cc2c(c(NC(C)=O)n1)c(=O)oc1ccccc12`, the Kd is > 4 mM (inactive).

Regarding `Cc1cc2cc(N)ccc2[nH]1`, the Kd was > 4 mM (inactive).

Turning to `c1ccc2c(c1)CN1CCCC1=N2`, the Kd was > 4 mM (inactive).

Take `COc1ccc(-c2c(OC)c3c(OC)c4c(cc3oc2=O)OC(C)(C)C=C4)cc1`: the Kd was > 4 mM (inactive).

Turning to `NC(=O)CSc1nc2[nH]ncc2c(=O)[nH]1`, the Kd is > 4 mM (inactive).

On to `S=c1nc2c(n[nH]1)[nH]c1ccccc12`, for which the Kd is > 4 mM (inactive).

For `CN(C)CC(O)C1CCOC(C)(C)C1` (stereo not drawn), the Kd is > 4 mM (inactive).

For the compound `CN1CCN(C(=S)c2ccc(N(C)C)cc2)CC1`, the Kd is > 4 mM (inactive).

Consider `Cc1ccc(C(=O)n2cnnc2N)cc1C`, for which the Kd was > 4 mM (inactive).

For `COC(=O)C(O)c1ccccc1` (stereo not drawn), the Kd was > 4 mM (inactive).

As to `COCC(=O)N1CCCc2ccccc21`, the Kd was > 4 mM (inactive).

For `O=C(O)C1NCCc2ccccc21` (stereo not drawn), the Kd is > 4 mM (inactive).

Consider `CN(Cc1nc2ccccc2n1C)S(C)(=O)=O`, for which the Kd is > 4 mM (inactive).

Turning to `C[C@@H]1OC(O[C@H]2C(O[C@H]3CC[C@@]4(C)C(CC[C@]5(C)C4CC=C4C6CC(C)(C)CC[C@]6(C(=O)O)CC[C@]45C)[C@]3(C)CO)OC[C@H](O)[C@@H]2O)[C@H](O)[C@H](O)[C@H]1O` (stereo partly drawn), the Kd was > 4 mM (inactive).

Turning to `N#Cc1cc(-c2ccccc2)oc1N`, the Kd is > 4 mM (inactive).

Take `COc1ccccc1NC(=O)NC(N)=O`: the Kd is > 4 mM (inactive).

As for `C=CCN1CC[C@]23c4c5ccc(O)c4OC2C(=O)CC[C@@]3(O)[C@H]1C5` (stereo partly drawn), the Kd was > 4 mM (inactive).

`O=C(Nc1nncs1)c1c(F)cccc1F`: the Kd was > 4 mM (inactive).

`COC(=O)c1c(OC)cc2c(c1C)Oc1c(Cl)c(O)c(Cl)c(C)c1C(=O)O2`: the Kd was > 4 mM (inactive).

Regarding `CSc1ccccc1NC(=O)c1ccc(C)o1`, the Kd was > 4 mM (inactive).

For the compound `Nc1c(C(=O)O)sc2ncccc12`, the Kd is > 4 mM (inactive).

In the case of `NCCC(=O)N[C@@H](Cc1cnc[nH]1)C(=O)O`, the Kd is > 4 mM (inactive).

For `CC(C)NS(=O)(=O)c1ccc(N)cc1`, the Kd was > 4 mM (inactive).

Regarding `Cc1cc(NC(=O)CCCn2cnc([N+](=O)[O-])n2)no1`, the Kd was > 4 mM (inactive).

Take `O=C(O)C1Cc2ccccc2O1` (stereo not drawn): the Kd was > 4 mM (inactive).

With `COC(=O)c1ccc2nsnc2c1`, the Kd is > 4 mM (inactive).

`Nc1ccc(OCc2ccccc2)cc1`: the Kd is > 4 mM (inactive).

`CSc1nsc(SCc2cnc(C)nc2N)n1`: the Kd was > 4 mM (inactive).

As for `CN(C)C(=S)Nc1nc2ccccc2s1`, the Kd is > 4 mM (inactive).
